For this experiment, the target named is T1, recombinant human CL receptor/RAMP1 (Homo sapiens, UniProt O60894+Q16602).
T1 construct: expressed in transfected cells; membranes
The experiment in a line: Recombinant receptor binding assay (125I-hCGRP). The note with it: membranes of HEK 293 cells expressing human CL receptor/RAMP1, 10 pM 125I-hCGRP. Here is the method:
RECOMBINANT RECEPTOR: Human CL receptor (Genbank accession number L76380) was subcloned into the expression vector pIREShyg2 (BD Biosciences Clontech) as a 5′NheI and 3′ PmeI fragment. Human RAMP1 (Genbank accession number AJ001014) was subcloned into the expression vector pIRESpuro2 (BD Biosciences Clontech) as a 5′NheI and 3′NotI fragment. HEK 293 cells (human embryonic kidney cells; ATCC #CRL-1573) were cultured in DMEM with 4.5 g/L glucose, 1 mM sodium pyruvate and 2 mM glutamine supplemented with 10% fetal bovine serum (FBS), 100 units/mL penicillin and 100 μg/mL streptomycin, and maintained at 37° C. and 95% humidity. Cells were subcultured by treatment with 0.25% trypsin with 0.1% EDTA in HBSS. Stable cell line generation was accomplished by co-transfecting 10 μg of DNA with 30 μg Lipofectamine 2000 (Invitrogen) in 75 cm^2 flasks. CL receptor and RAMP1 expression constructs were co-transfected in equal amounts. Twenty-four hours after transfection the cells were diluted and selective medium (growth medium+300 μg/mL hygromycin and 1 μg/mL puromycin) was added the following day. A clonal cell line was generated by single cell deposition utilizing a FACS Vantage SE (Becton Dickinson). Growth medium was adjusted to 150 μg/mL hygromycin and 0.5 μg/mL puromycin for cell propagation.
RECOMBINANT RECEPTOR BINDING ASSAY: Cells expressing recombinant human CL receptor/RAMP1 were washed with PBS and harvested in harvest buffer containing 50 mM HEPES, 1 mM EDTA and Complete™ protease inhibitors (Roche). The cell suspension was disrupted with a laboratory homogenizer and centrifuged at 48,000 g to isolate membranes. The pellets were resuspended in harvest buffer plus 250 mM sucrose and stored at −70° C. For binding assays, 20 μg of membranes were incubated in 1 mL binding buffer (10 mM HEPES, pH 7.4, 5 mM MgCl2, and 0.2% BSA) for 3 h at room temperature containing 10 pM ^125I-hCGRP (GE Healthcare) and antagonist. The assay was terminated by filtration through 96-well GFB glass fiber filter plates (PerkinElmer) that had been blocked with 0.05% polyethyleneimine. […]

One may read the Ki as the equilibrium dissociation constant of an inhibitor or competing ligand from its target.

SMILES strings stand for the structures.

T1 sequence (Q16602 23-461): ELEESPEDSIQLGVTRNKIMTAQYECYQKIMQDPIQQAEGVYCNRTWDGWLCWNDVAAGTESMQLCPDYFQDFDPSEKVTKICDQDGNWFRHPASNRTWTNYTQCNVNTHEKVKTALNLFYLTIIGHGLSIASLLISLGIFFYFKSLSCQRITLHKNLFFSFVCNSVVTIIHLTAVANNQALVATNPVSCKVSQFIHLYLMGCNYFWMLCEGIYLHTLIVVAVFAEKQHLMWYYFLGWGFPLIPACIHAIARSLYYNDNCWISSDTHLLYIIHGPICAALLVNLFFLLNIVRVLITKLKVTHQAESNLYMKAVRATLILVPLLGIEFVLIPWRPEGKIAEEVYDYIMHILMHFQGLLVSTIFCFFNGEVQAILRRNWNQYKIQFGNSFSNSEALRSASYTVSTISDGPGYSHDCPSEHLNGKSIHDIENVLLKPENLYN
T1 sequence (O60894 27-148): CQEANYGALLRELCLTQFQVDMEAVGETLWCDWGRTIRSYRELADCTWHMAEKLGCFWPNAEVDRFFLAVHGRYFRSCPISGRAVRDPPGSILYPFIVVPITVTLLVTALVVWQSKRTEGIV

Consider `C[C@@H]1[C@H](c2c(F)ccc(F)c2F)C[C@H](NC(=O)c2cnc3c(c2)C[C@@]2(C3)C(=O)NC(=O)N2C)C(=O)N1CC(F)(F)F` [Example 1, (6R)-3′-Methyl-N-[(3S,5S,6R)-6-methyl-2-oxo-1-(2,2,2-trifluoroethyl)-5-(2,3,6-trifluorophenyl)piperidin-3-yl]-2′,5′-dioxo-5,7-dihydrospiro[cyclopenta[b]pyridine-6,4′-imidazolidine]-3-carboxamide], for which the inhibitory constant (Ki) amounted to 0.061 nM.

For the molecule `C[C@@H]1[C@H](c2c(F)c(F)cc(F)c2F)C[C@H](NC(=O)c2cnc3c(c2)C[C@@]2(C3)C(=O)NC(=O)N2C)C(=O)N1CC(F)(F)F` [Example 2, (6R)-3′-Methyl-N-[(3S,5S,6R)-6-methyl-2-oxo-1-(2,2,2-trifluoroethyl)-5-(2,3,5,6-tetrafluorophenyl)piperidin-3-yl]-2′,5′-dioxo-5,7-dihydrospiro[cyclopenta[b]pyridine-6,4′-imidazolidine]-3-carboxamide], the Ki came to 0.059 nM.

On to `C[C@@H]1[C@H](c2cc(F)cc(F)c2F)C[C@H](NC(=O)c2cnc3c(c2)C[C@@]2(C3)C(=O)NC(=O)N2C)C(=O)N1CC(F)(F)F` [Example 3], for which the inhibition constant Ki was 0.28 nM.

The values above are taken from patent publication US9409916B2, “Piperidinone carboxamide spirohydantoin CGRP receptor antagonists” (Merck Sharp & Dohme Corp., priority 2011, dated 2016).
